This experiment relates to BDF1 mice, P388 leukemia ip, median survival T/C. Description: NCI In Vivo Anticancer Drug Screen. Data for tumor model P388 Leukemia (intraperitoneal) in B6D2F1 (BDF1) mice. The settings on record: endpoint: median survival time, higher = longer survival. The procedure, abridged: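 Transplantable tumour in mice; compound vs vehicle dosing; survival scored; ratio of treated to control reported.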

Where [1] appears, read: dose: 100.0 mg/kg/injection, schedule: Q01DX009 (ip), vehicle: saline with Tween-80.
Setting [2] is: dose: 200.0 mg/kg/injection, schedule: Q01DX009 (ip), vehicle: saline with Tween-80.
Where [3] appears, read: dose: 75.0 mg/kg/injection, schedule: Q01DX009 (ip), vehicle: Klucel (hydroxypropylcellulose) (HPC).
Where [4] appears, read: dose: 25.0 mg/kg/injection, schedule: Q01DX009 (ip), vehicle: saline.
[5] abbreviates: dose: 50.0 mg/kg/injection, schedule: Q01DX009 (ip), vehicle: saline with Tween-80.
Setting [6] is: dose: 400.0 mg/kg/injection, schedule: Q01DX009 (ip), vehicle: saline with Tween-80.
The mark [7] stands for this setting: dose: 12.5 mg/kg/injection, schedule: Q01DX009 (ip), vehicle: Klucel (hydroxypropylcellulose) (HPC).
The mark [8] stands for this setting: dose: 33.0 mg/kg/injection, schedule: Q01DX009 (ip), vehicle: Klucel (hydroxypropylcellulose) (HPC).
Where [9] appears, read: dose: 50.0 mg/kg/injection, schedule: Q01DX009 (ip), vehicle: Klucel (hydroxypropylcellulose) (HPC).

Several values for one entry are separate records, joined by “and”; a condition that tells them apart may be missing. Equal entries are not always repeated. Inconclusive results and toxic doses are left out.

Turning to `c1ccc(CN2CCn3nccc32)cc1`, the T/C is 98 % of control (dose: 6.25 mg/kg/injection, schedule: Q01DX009 (ip), vehicle: other); 90 % of control (dose: 12.5 mg/kg/injection, schedule: Q01DX009 (ip), vehicle: other); 104 % of control (dose: 12.5 mg/kg/injection, schedule: Q04DX003 (ip), vehicle: other); 91 % of control (dose: 25.0 mg/kg/injection, schedule: Q01DX009 (ip), vehicle: other); 91 % of control (dose: 25.0 mg/kg/injection, schedule: Q04DX003 (ip), vehicle: other); 94 % of control (dose: 50.0 mg/kg/injection, schedule: Q01DX009 (ip), vehicle: other). The T/C is 91 % of control (dose: 50.0 mg/kg/injection, schedule: Q04DX003 (ip), vehicle: other); 92 % of control (dose: 100.0 mg/kg/injection, schedule: Q01DX009 (ip), vehicle: other); 92 % of control (dose: 100.0 mg/kg/injection, schedule: Q04DX003 (ip), vehicle: other); 96 % of control (dose: 200.0 mg/kg/injection, schedule: Q04DX003 (ip), vehicle: other).

In the case of `O=C(/C=C/c1ccccc1)NC(CO)Cc1ccccc1` (stereo unspecified), the T/C (dose: 6.25 mg/kg/injection, schedule: Q01DX009 (ip), vehicle: saline with Tween-80) was 90 % of control; the T/C (dose: 12.5 mg/kg/injection, schedule: Q01DX009 (ip), vehicle: saline with Tween-80) is 92 % of control; the T/C (dose: 25.0 mg/kg/injection, schedule: Q01DX009 (ip), vehicle: saline with Tween-80) was 101 % of control; the T/C under setting [1] is 100 % of control; the T/C under setting [2] is 100 % of control.

As for `OC(C#CC(O)c1ccccc1)c1ccccc1` (stereo unspecified), the T/C is 100 % of control (dose: 100.0 mg/kg/injection, schedule: Q04DX003 (ip), vehicle: saline) and 104 % of control (dose: 200.0 mg/kg/injection, schedule: Q04DX003 (ip), vehicle: saline).

With `CS(C)=O.CS(C)=O.[Cl][Sn]([Cl])([Cl])[Cl]`, the T/C by setting is: (dose: 37.5 mg/kg/injection, schedule: Q01DX009 (ip), vehicle: Klucel (hydroxypropylcellulose) (HPC)) 105 % of control; under setting [3], 100 % of control; (dose: 100.0 mg/kg/injection, schedule: Q04DX003 (ip), vehicle: Klucel (hydroxypropylcellulose) (HPC)) 104 % of control; (dose: 150.0 mg/kg/injection, schedule: Q01DX009 (ip), vehicle: Klucel (hydroxypropylcellulose) (HPC)) 100 % of control; (dose: 200.0 mg/kg/injection, schedule: Q04DX003 (ip), vehicle: Klucel (hydroxypropylcellulose) (HPC)) 90 % of control.

For `Oc1cc(O)c(CN(CCCl)CCCl)cc1CN(CCCl)CCCl`, the T/C by setting is: (dose: 1.0 mg/kg/injection, schedule: Q01DX009 (ip), vehicle: saline) 118 % of control; (dose: 1.5 mg/kg/injection, schedule: Q01DX009 (ip), vehicle: saline) 118 % of control; (dose: 2.4 mg/kg/injection, schedule: Q01DX009 (ip), vehicle: saline) 157 % of control; (dose: 3.6 mg/kg/injection, schedule: Q01DX009 (ip), vehicle: saline) 182 % of control; (dose: 5.4 mg/kg/injection, schedule: Q01DX009 (ip), vehicle: saline) 166 % of control; (dose: 5.5 mg/kg/injection, schedule: Q01DX009 (ip), vehicle: saline) 168 % of control. Moreover, the T/C (dose: 8.2 mg/kg/injection, schedule: Q01DX009 (ip), vehicle: saline) was 176 % of control; the T/C (dose: 8.25 mg/kg/injection, schedule: Q01DX009 (ip), vehicle: saline) was 165 % of control and 180 % of control; the T/C (dose: 9.9 mg/kg/injection, schedule: Q04DX003 (ip), vehicle: saline) is 163 % of control; the T/C (dose: 15.0 mg/kg/injection, schedule: Q04DX003 (ip), vehicle: saline) is 220 % of control; the T/C (dose: 16.0 mg/kg/injection, schedule: Q01DX009 (ip), vehicle: saline) is 194 % of control; the T/C (dose: 18.75 mg/kg/injection, schedule: Q01DX009 (ip), vehicle: saline) is 195 % of control and 200 % of control. The T/C was 160 % of control (dose: 23.0 mg/kg/injection, schedule: Q04DX003 (ip), vehicle: saline); 162 % of control and 202 % of control and 222 % of control under setting [4]; 185 % of control (dose: 35.0 mg/kg/injection, schedule: Q01DX009 (ip), vehicle: saline); 190 % of control and 200 % of control (dose: 35.0 mg/kg/injection, schedule: Q04DX003 (ip), vehicle: saline); 150 % of control (dose: 50.0 mg/kg/injection, schedule: Q01DX009 (ip), vehicle: saline); 250 % of control and 212 % of control (dose: 55.0 mg/kg/injection, schedule: Q04DX003 (ip), vehicle: saline). The T/C is 250 % of control and 208 % of control (dose: 80.0 mg/kg/injection, schedule: Q04DX003 (ip), vehicle: saline); 86 % of control (dose: 100.0 mg/kg/injection, schedule: Q01DX009 (ip), vehicle: saline); 177 % of control (dose: 200.0 mg/kg/injection, schedule: Q01DX009 (ip), vehicle: saline).

Consider `O=c1oc2ccccc2c2c1Cc1c(oc3ccc4ccccc4c3c1=O)O2`, for which the T/C reads like this: under setting [5], 91 % of control; under setting [1], 95 % of control; under setting [2], 92 % of control.

As for `O=C1SC(c2ccccc2)=S=C1c1ccccc1`, the T/C runs as follows: under setting [5], 108 % of control; under setting [1], 123 % of control; under setting [2], 123 % of control; under setting [6], 117 % of control.

With `CCC(c1ccc2cc(OC)ccc2c1)C(C)(C)C(=O)F` (stereo unspecified), the T/C is 116 % of control under setting [7], 104 % of control under setting [8] and 113 % of control under setting [3].

As for `COc1ccc2c(Cc3ccccc3)cncc2c1O`, the T/C was 99 % of control (dose: 6.25 mg/kg/injection, schedule: Q01DX009 (ip), vehicle: Klucel (hydroxypropylcellulose) (HPC)); 100 % of control under setting [7]; 105 % of control (dose: 25.0 mg/kg/injection, schedule: Q01DX009 (ip), vehicle: Klucel (hydroxypropylcellulose) (HPC)); 108 % of control under setting [9]; 117 % of control (dose: 100.0 mg/kg/injection, schedule: Q01DX009 (ip), vehicle: Klucel (hydroxypropylcellulose) (HPC)).

In the case of `CCCC(=O)c1ccco1`, under setting [5], the T/C was 101 % of control.

In the case of `CC1(C)N=C(N)N=C(N)N1c1ccc(OCCOc2ccc(S(=O)(=O)F)cc2)c(Cl)c1`, the T/C reads like this: (dose: 12.5 mg/kg/injection, schedule: Q04DX003 (ip), vehicle: saline with Tween-80) 158 % of control; (dose: 13.0 mg/kg/injection, schedule: Q04DX003 (ip), vehicle: saline with Tween-80) 160 % of control; (dose: 20.0 mg/kg/injection, schedule: Q04DX003 (ip), vehicle: saline with Tween-80) 185 % of control; (dose: 25.0 mg/kg/injection, schedule: Q04DX003 (ip), vehicle: saline with Tween-80) 170 % of control; (dose: 30.0 mg/kg/injection, schedule: Q04DX003 (ip), vehicle: saline with Tween-80) 185 % of control; under setting [8], 227 % of control. The T/C was 154 % of control under setting [9]; 268 % of control under setting [5]; 154 % of control and 162 % of control (dose: 50.0 mg/kg/injection, schedule: Q04DX003 (ip), vehicle: saline with Tween-80); 180 % of control (dose: 66.0 mg/kg/injection, schedule: Q04DX003 (ip), vehicle: saline with Tween-80); 163 % of control under setting [3]; 170 % of control (dose: 75.0 mg/kg/injection, schedule: Q04DX003 (ip), vehicle: saline with Tween-80). Besides, the T/C was 90 % of control under setting [1]; 180 % of control (dose: 100.0 mg/kg/injection, schedule: Q04DX003 (ip), vehicle: saline with Tween-80); 232 % of control (dose: 150.0 mg/kg/injection, schedule: Q04DX003 (ip), vehicle: saline with Tween-80); 108 % of control (dose: 200.0 mg/kg/injection, schedule: Q04DX003 (ip), vehicle: saline with Tween-80).

As to `O=S(=O)(Nc1ccc(O)c(Cl)c1)c1ccccc1`, the T/C reads like this: under setting [1], 86 % of control; under setting [2], 100 % of control; under setting [6], 104 % of control.

On to `O=C1C=C(Nc2ccc(O)cc2)c2ccccc2C1=O`, for which the T/C by setting is: (dose: 6.25 mg/kg/injection, schedule: Q01DX009 (ip), vehicle: saline) 95 % of control; (dose: 12.5 mg/kg/injection, schedule: Q01DX009 (ip), vehicle: saline) 104 % of control; under setting [4], 100 % of control.

For the origin of these results see PubChem BioAssay AID328 (DTP/NCI, 2004).
